Results: US6890948B1 (Cancer Research Technology Limited, priority 2000, dated 2005)
pIC50: −log10 of the molar value. Like-named read-outs stand apart in the source and are kept apart here. Marks after values point to notes of the source that are not given here. Each block holds one molecule with its values, some of them ahead of it.

How the values were obtained:
[1] = system: Hamster lung fibroblast V79 cells; assay: Cytotoxic effects of compounds of formula (I) with horseradish peroxidase (HRP), clonogenic cell survival; assay type: cell-based; conditions: 2 hours treatment, mean ± standard error of three experiments unless n given
Experimental: Hamster lung fibroblast V79 cells were obtained from the European Tissue Culture Collection. Cells were grown over the weekend in […] tissue culture flats as attached cells in Eagle's Modified Essential Medium (EMEM) supplemented with 10% foetal calf serum, 2 mM L-glutamine, 100 U/mL penicillin and 100 μg/mL streptomycin, and incubated in a humidified incubator at 37° C., in 5% CO2/air. […] The trypsin was deactivated by the addition of 10 mL spinner modified EMEM (supplemented with 7.5% foetal calf serum) and the cells allowed to grow in a spinning culture, pre-gassed with 5% CO2/air, maintaining the cells in logarithmic growth.
Cells were prepared for toxicity measurements by counting and plating 200, 2000 or 20,000 cells/6 cm Petri dish in 3 mL EMEM in triplicate for each sample. The cells were allowed to attach for at least 1 hour, then the medium removed and 2 mL phenol red free Hanks' balanced salt solution added, either alone (control) or with 50 or 100 μM of the compound of formula (I) to be tested. HRP (50 μL of 0.048 mg/mL) was added to the test dishes requiring it and the cells left in the incubator for 0, 0.5, 1, 1.5 or 2 hours. After the incubation time the drug was removed, the cells washed with 2 mL Hanks and then 4 mL EMEM added. The cells were allowed to grow for 7 days to colonies of >50 cells. After 7 days the medium was removed and the cells fixed with 75% methanol for 5 minutes. The methanol was then removed and the cells stained with 1% w/v crystal violet for 5 minutes. The cells were washed and colonies counted. Cell survival was determined by calculating the ratio of colonies growing compared to untreated control cells.
In table 1, values are the surviving fraction after 2 hours treatment with the IAA derivatives at the concentrations shown together with HRP (1.2 μg/mL). Unless otherwise indicated (by n=number of individual experiments), the means±the standard errors of three experiments are given.

[2] = system: Human bladder carcinoma T24 cells; assay: GDEPT: clonogenic survival of cells transiently transfected with the HRP gene versus untransfected cells; assay type: cell-based; conditions: for pIC50: Homo sapiens, T-24, 24 h; for factor: ratio of IC50 for transfected and untransfected cells
Experimental: (§1) Human bladder carcinoma T24 cells, MCF-7 mammary carcinoma cells (both from European Collection of Cell Cultures, Salisbury, UK), FaDu, nasopharyngeal squamous carcinoma cells (American Type Culture Collection, Manassas, Va.) were maintained in Dulbecco's modified Eagle's medium (DMEM) supplemented with 10% foetal calf serum, 2 mM L-glutamine, 100 U/ml penicillin, 100 µg/ml streptomycin, and incubated in a humidified incubator at 37° C. and 5% CO2/air. Only cells which tested negative for mycoplasma infection were utilised.
(§2) Following drug exposure, cells were rinsed with PBS and grown for 8 to 20 days in complete DMEM supplemented with feeder cells (V79 cells exposed to 250 Gy ^60Co irradiation). After fixation and staining with 2.5% crystal violet w/v in methylated spirit, colonies of >50 cells were scored. Surviving fractions were evaluated relative to HBSS-treated controls.

[3] = system: FaDu, nasopharyngeal squamous carcinoma cells; assay: as above; assay type: cell-based, human; conditions: for pIC50: Homo sapiens; for factor: ratio of IC50 for transfected and untransfected cells
Experimental: as §1, §2

[4] = system: MCF-7 mammary carcinoma cells; assay: as above; assay type: cell-based, human; conditions: for pIC50: Homo sapiens; for factor: MCF-7, ratio of IC50 for transfected and untransfected cells
Experimental: as §1, §2

[5] = Distribution of 5-fluoro-indole acetic acid in vivo in mice with the Carcinoma NT tumour; conditions: 50 mg/kg i.p., female CBA mice bearing Carcinoma NT tumour, up to 2 hours
Experimental: 5-fluoro-indole acetic acid (5 mg/mL) in 2% v/v ethanol/water was adjusted to pH 7.4 with NaOH and injected i.p. at a dose of 50 mg/kg into female CBA mice bearing the Carcinoma NT tumour (see example 8 for details). The mice were sacrificed up to 2 hours after drug administration and the blood and tissues removed immediately and placed on ice. The whole blood was spun down and the plasma stored at −20° C. Tissue sample were weighed and homogenised in 4 to 9 volumes of ice-cold water. The homogenised tissue was then stored at −20° C.
For HPLC analysis, plasma (50 μL) was mixed with IAA internal standard (130 μM, 25 μL) and protein precipitated with acetonitrile (50 μL). The samples were spun down and the supernatant injected directly for HPLC analysis. For tissue levels, samples (250 μL) was mixed with IAA internal standard (130 μM, 25 μL) and precipitated with acetonitrile (250 μL) for direct injection for HPLC analysis. HPLC analysis was carried out with a Hypersil SODS 125×4.6 mm column eluting with A; 75% acetonitrile and B: 20 mM ammonium acetate (pH 5.1) with a gradient of 15-70% A in 10 minutes at 2 mL/minute. Detection was at 290 nm using a Waters 486 variable wavelength detector.

[6] = 100 μM IAA derivative together with HRP (1.2 μg/mL), 0^a = all cells killed, 1^b = no detectable effect
[7] = 50 μM IAA derivative together with HRP (1.2 μg/mL)

Compound: O=C(O)Cc1c[nH]c2ccc(Br)cc12 [Compound 5-bromo, 5-bromo-indole-3-acetic acid]
- surviving fraction [1, 6]: 0.00004 ± 0.00003
- pIC50 ([2]; read-out: IC50 HRP+, T24 (anoxic), transfected cells, 24 hours exposure in anaerobic cabinet): 5.15
- pIC50 ([2]; read-out: IC50 HRP+, T24 (normoxic), transfected cells, 24 hours exposure, estimated from survival curves): 5.22
- pIC50 ([2]; read-out: IC50 HRP−, T24 (anoxic), untransfected cells, 24 hours exposure in anaerobic cabinet): 3.00
- pIC50 ([2]; read-out: IC50 HRP−, T24 (normoxic), untransfected cells, 24 hours exposure): 3.22
- factor ([2]; T24 (anoxic)): 43
- factor ([2]; T24 (normoxic)): 100
- pIC50 ([3]; 24 h, read-out: IC50 HRP+): 5.15
- pIC50 ([3]; 24 h, read-out: IC50 HRP−): 3.22
- factor [3]: 86
- pIC50 ([4]; MCF7, 24 h, read-out: IC50 HRP+): 5.15
- pIC50 ([4]; MCF7, 24 h, read-out: IC50 HRP−): 3.30
- factor [4]: 71

- levels in the kidney [5]: High levels in the kidney
Compound: O=C(O)Cc1c[nH]c2ccc(F)cc12 [Compound 5-fluoro, 5-fluoro-indole-3-acetic acid]
- surviving fraction [1, 7]: 0.0045 ± 0.003
- surviving fraction [1, 6]: 0^a
- pIC50 ([2]; T24 (anoxic), transfected cells, 24 hours exposure in anaerobic cabinet, read-out: IC50 HRP+): 4.52
- pIC50 ([2]; T24 (anoxic), untransfected cells, 24 hours exposure in anaerobic cabinet, read-out: IC50 HRP−): 2.64
- pIC50 ([2]; T24 (normoxic), transfected cells, 24 hours exposure, estimated from survival curves, read-out: IC50 HRP+): 4.40
- pIC50 ([2]; T24 (normoxic), untransfected cells, 24 hours exposure, read-out: IC50 HRP−): 2.46
- factor ([2]; T24 (anoxic)): 77
- factor ([2]; T24 (normoxic)): 88
- pIC50 ([3]; transfected cells, 24 hours exposure, read-out: IC50 HRP+): 4.70
- pIC50 ([3]; untransfected cells, 24 hours exposure, read-out: IC50 HRP−): 2.92
- factor [3]: 60
- pIC50 ([4]; MCF7, MCF-7, transfected cells, 24 hours exposure, read-out: IC50 HRP+): 3.60
- pIC50 ([4]; MCF7, MCF-7, untransfected cells, 24 hours exposure, read-out: IC50 HRP−): 3.40
- factor [4]: 1.6
- concentration in the tumour [5]: sufficient concentrations to achieve a cytotoxic effect are attained in the tumour

- melting point: 159 to 161 °C
Compound: O=C(O)Cc1c[nH]c2c(F)cccc12 [SR022, 7-Fluoroindole-3-acetic acid]
- surviving fraction [1, 7]: 0.053 ± 0.022
- surviving fraction [1, 6]: 0^a

- melting point: 160 to 161 °C
Compound: O=C(O)Cc1c[nH]c2ccc(Cl)cc12 [SR024, 5-Chloroindole-3-acetic acid]
- surviving fraction [1, 6]: 0.0027 ± 0.0022

- melting point: 182 to 184 °C
Compound: Cc1[nH]c2ccc(F)cc2c1CC(=O)O [SR036, 5-Fluoro-2-methylindole-3-acetic acid]

- melting point: 129 to 131 °C
Compound: O=C(O)Cc1c[nH]c2cccc(F)c12 [SR039, 4-Fluoroindole-3-acetic acid]
- surviving fraction [1, 6]: 0.000085 ± 0.00007

- melting point: 161 to 163 °C
Compound: O=C(O)Cc1c[nH]c2cc(F)ccc12 [SR043, 6-Fluoroindole-3-acetic acid]
- surviving fraction [1, 6]: 0.00995 (n = 2)

- melting point: 164 to 165 °C
Compound: O=C(O)Cc1c[nH]c2c(Cl)cccc12 [SR052, 7-Chloroindole-3-acetic acid]
- surviving fraction [1, 6]: 0.000042 (n = 1)

- melting point: 183 to 185 °C
Compound: O=C(O)Cc1c[nH]c2cc(Cl)ccc12 [SR058, 6-Chloroindole-3-acetic acid]
- surviving fraction [1, 7]: 0.00085 (n = 1)
- surviving fraction [1, 6]: 0^a

- melting point: 174 to 176 °C
Compound: O=C(O)Cc1c[nH]c2cc(Br)ccc12 [SR069, 6-Bromoindole-3-acetic acid]
- surviving fraction [1, 7]: 0.0031 ± 0.0023
- surviving fraction [1, 6]: 0^a

- melting point: 120 to 122 °C
Compound: O=C(O)Cc1c[nH]c2ccc(OC(F)(F)F)cc12 [SR073, 5-Trifluoromethoxyindole-3-acetic acid]

- melting point: 223 to 224 °C
Compound: O=C(O)Cc1c[nH]c2cc(Cl)cc(Cl)c12 [SR085, 4,6-Dichloroindole-3-acetic acid]

- melting point: 164 to 166 °C
Compound: O=C(O)Cc1c[nH]c2c(F)cc(Cl)cc12 [SR091, 5-Chloro-7-fluoroindole-3-acetic acid]

- melting point: 138 to 140 °C
Compound: Cc1cc(F)c2[nH]cc(CC(=O)O)c2c1 [SR109, 7-Fluoro-5-methylindole-3-acetic acid]

- melting point: 130 to 132 °C (dec.)
Compound: Cn1cc(CC(=O)O)c2ccc(Cl)cc21 [SR139, 6-Chloro-1-methylindole-3-acetic acid]

- melting point: 162 to 164 °C (dec.)
Compound: Cc1ccc(F)c2[nH]cc(CC(=O)O)c12 [SR148, 7-Fluoro-4-methylindole-3-acetic acid]

- melting point: 166 to 168 °C
Compound: O=C(O)Cc1c[nH]c2ccc(-c3ccc(Cl)cc3)cc12 [SR150, 5-(4-Chlorophenyl)indole-3-acetic acid]
